For 85 molecules, IC50 results are on record in PubChem BioAssay AID2305 (GlaxoSmithKline (GSK), 2010).

Several values for one entry are separate records, joined by “and”; a condition that tells them apart may be missing. Equal entries are not always repeated.

Usually IC50 stands for the concentration needed to halve the response being measured.

The test system of the experiment is P. falciparum 3D7 growth, pLDH absorbance. Briefly: blood-stage malaria parasite growth potency – strain 3D7, dose response (AID 2305).
Molecule `CCCNCc1ccc(-c2ccc(CN(Cc3cnc(C)cn3)C(=O)CC#N)cc2)nc1` returned an IC50 of 1220 nM.

The molecule `COC(=O)C(Cc1ccccc1)C(CSCc1ccc(OC)cc1)C(=O)N[C@@H](C(=O)OC(C)(C)C)c1ccc(C(C)(C)C)cc1` (stereo not given in full) yielded an IC50 of 1030 nM. This IC50 and that of the molecule before are within 1.5-fold of each other.

Turning to `COc1ccc(-c2onc(C(F)(F)F)c2-c2cc3ccccc3o2)c(O)c1`, the IC50 is 860 nM.

For `Cc1cccc2[nH]c(-c3ccc(-c4ccc(CNCc5cccc(N)c5)cc4)s3)nc12`, the IC50 turned out to be 750 nM.

On to `O=C(Cn1c(CCc2cccc(F)c2F)nc(=O)c2ccccc21)N(CCCN1CCCCC1)Cc1ccc(-c2ccc(C(F)(F)F)cc2)cc1`, for which the half-maximal inhibitory concentration (IC50) is 760 nM.

`CC(C)CNCc1ccc(-c2cccc(CN(C(=O)NCCc3ccccc3)C3CCN(Cc4ccccc4)CC3)c2)cc1` returned an IC50 of 580 nM.

Molecule `Cc1nnsc1C(=O)Nc1cccc(-c2csc(-c3nc4ccccc4[nH]3)c2)c1` registered an IC50 of 350 nM.

Molecule `O=C(Nc1ccccc1O)C1CCN(c2ncnc3cc(-c4ccc(F)cc4)sc23)CC1` showed an IC50 of 870 nM.

`CCCCCCN(CCCCCC)CC(O)c1c(OC)ccc2ccccc12` (stereo not given) came in with an IC50 of 570 nM.

Regarding `CCNc1cc(C)nc(Nc2ccc(NC(=O)c3ccco3)cc2)n1`, the IC50 stood at 1090 nM.

`CNc1ccc(CNCc2ccc(-c3ccc(-c4nc5ccc(C(F)(F)F)cc5[nH]4)s3)cc2)cc1` had an IC50 of 180 nM.

In the case of `CS(=O)(=O)N(c1ccc(F)cc1)c1cc(C(=O)N[C@@H](Cc2ccccc2)[C@H](O)CNCc2cccc(C(F)(F)F)c2)cc(N2CCCC2=O)c1`, the IC50 amounted to 1350 nM.

The molecule `COc1ccc(Nc2nc(NN=Cc3cc(Br)ccc3O)nc(Nc3ccc([N+](=O)[O-])cc3)n2)cc1` yielded an IC50 of 220 nM.

In turn, `Cc1cccc2[nH]c(-c3cccc(-c4ccc(NC(=O)Cc5ccccn5)cc4)c3)nc12` returned an IC50 of 790 nM.

`O=C(Nc1ccc(I)cc1)N1CCc2sccc2C1CN1CCCCC1` (stereo not given) came in with an IC50 of 1200 nM.

On to `Cc1ccc2c(=O)n(C)c(=O)n(C)c2n1`, for which the IC50 is 820 nM.

`COc1ccc2nccc([C@@H](O)CN3CCC(NCc4cnc5snnc5c4)C(F)C3)c2c1` (stereo not given in full) displayed an IC50 of 1350 nM.

In turn, `COc1ccc2nccc([C@@H](O)CN3CCC(NC(=O)c4ccc(C5(C(F)(F)F)N=N5)cc4)CC3)c2c1` showed an IC50 of 930 nM.

`CC1(C)CN(CCC2CCC(NC(=O)/C=C/c3ccc(F)cc3F)CC2)Cc2ccc(C#N)cc21` (stereo not given) registered an IC50 of 790 nM.

As for `Cc1ccc(OC2CCN(CCCCC3(C)C(=O)Nc4ccccc43)CC2)cc1` (stereo not given), the IC50 stood at 740 nM.

Consider `N#Cc1ccc2[nH]cc(CN3CCC4(CC3)CN(CCNCc3ccccc3)C(=O)CO4)c2c1`, for which the IC50 stood at 760 nM.

Regarding `COc1cccc(C(=O)NC(C=Cc2ccccc2)c2cc(Cl)c3cccnc3c2O)c1` (stereo not given), the IC50 turned out to be 860 nM.

In turn, `CC(CN1CCN(C)CC1)C(=O)Nc1ccc(-c2cccc(-c3nc4ccccc4[nH]3)c2)cc1` (stereo not given) came in with an IC50 of 570 nM. Against the preceding molecule, the IC50 is about 1.5-fold lower.

Consider `COc1ccccc1CCCN1C(=O)C(c2ccccc2)(c2ccccc2)N=C1N`, for which the IC50 amounted to 270 nM.

On to `O=C(Nc1ccc(-c2nc3ccccc3[nH]2)cc1)c1ccc(-c2cccc([N+](=O)[O-])c2)o1`, for which the IC50 came to 270 nM.

Molecule `c1ccc2c(NCCCCCCNc3c4c(nc5ccccc35)CCCC4)c3c(nc2c1)CCCC3` displayed an IC50 of 200 nM.

`COc1cc2nc(SCC(C)C)n(CCCn3ccnc3)c(=N)c2cc1OC` returned an IC50 of 610 nM. This IC50 is about 3-fold higher than that of the molecule before.

For `Nc1ncc(-c2cn[nH]c2)cc1-c1nc2ccc(F)cc2[nH]1`, the IC50 was determined as 730 nM. The IC50 values of the last two molecules are within 1.5-fold of each other.

Molecule `CCN(Cc1ccccc1)C1CCN(Cc2cc(Br)ccc2O)CC1` had an IC50 of 820 nM.

As to `O=C(Nc1ccc(-c2nc3ccccc3[nH]2)cc1)c1ccc(S(=O)(=O)N2CCCCCC2)cc1`, the IC50 is 410 nM.

Take `O=C(CN1CCC2(CCC1=O)CC(=O)c1ccccc1O2)NCCN1CCOCC1` (stereo not given): the half-maximal inhibitory concentration (IC50) is 220 nM.

The molecule `Clc1ccc(OCc2ccccc2)c(Cc2ccc(-c3nc4ccncc4[nH]3)o2)c1` returned a half-maximal inhibitory concentration (IC50) of 750 nM. Against the preceding molecule, the IC50 is about 3.4-fold higher.

For the molecule `O=C(Nc1cccc(-c2ccc(-c3nc4ccc(F)cc4[nH]3)cc2)c1)c1cccnc1`, the IC50 is 610 nM.

In turn, `Nc1nc(N)c2c(ccc3c2ccn3CCCF)n1` displayed a half-maximal inhibitory concentration (IC50) of 150 nM.

Take `CCCN1CCN(c2ccccc2NS(=O)(=O)c2ccc(C(=O)Nc3ccc(Cl)cc3)cc2)CC1`: the IC50 amounted to 1140 nM.

As to `CCN1CCC(N(Cc2ccc(-c3ccc(C(F)(F)F)cc3)cc2)C(=O)CCCCn2c(CCc3cccc(F)c3F)nc(=O)c3ccccc32)CC1`, the half-inhibitory concentration (IC50) turned out to be 990 nM. This IC50 and that of the molecule before are within 1.5-fold of each other.

As to `CC(C)(C)c1ccc2nc(-c3ccc(C(=O)NCc4cccc(C(F)(F)F)c4)cc3)[nH]c2c1`, the IC50 stood at 730 nM.

Take `COc1ccccc1N1CCN(CCCCNC(=O)c2ccc(NC(=O)c3ccc4ccccc4c3)cc2)CC1`: the half-maximal inhibitory concentration (IC50) was 800 nM.

Turning to `Cn1nc(-c2ccc(NC(=O)Nc3cc(C(F)(F)F)ccc3F)cc2)c2cnc(NCCc3cnc[nH]3)nc21`, the IC50 was found to be 810 nM.

In turn, `COc1ccc(CNCc2cccc(-c3cccc(-c4nc5c(C)cccc5[nH]4)c3)c2)cc1` had a concentration for half-maximal inhibition (IC50) of 130 nM.

As for `CC(=O)Nc1ncc(C(=O)Nc2cccc(-c3ccc(-c4nc5ccccc5[nH]4)cc3)c2)s1`, the IC50 was 670 nM. This IC50 is about 5.2-fold higher than that of the molecule before.

Take `O=C(/C=C/c1ccc(Cl)c(Cl)c1)NCCCCCCN1CCN(C(=O)Nc2cc(Cl)nc(Cl)c2)CC1`: the IC50 is 780 nM.

The molecule `CCCN1CC[C@@H](CCCc2ccnc3ccc(O)cc23)[C@@H](CC)C1` registered an IC50 of 890 nM.

As to `CC(=NN=C(N)N)c1ccc2c(c1)Cc1ccccc1-2`, the IC50 came out at 1410 nM.

As to `CC(C)N1CCN(CCCNc2c3ccccc3nc3ccccc23)CC1`, the IC50 amounted to 230 nM.

`CCN(CC)CCCC(C)Nc1ccnc2[nH]c3ccccc3c12` (stereo not given) displayed an IC50 of 1770 nM.

`Cc1cccc2[nH]c(-c3cccc(-c4cccc(CN5CCN(c6ccc(C#N)cn6)CC5)c4)c3)nc12` came in with an IC50 of 1160 nM.

For the molecule `CN(CCN1CCCC1)c1nc2ccc(-n3cnc4cc(-c5ccc(Cl)cc5)sc4c3=O)cc2[nH]1`, the IC50 amounted to 820 nM.

`CN(C)C(=O)CC(=O)NCc1cccc(Cl)c1` gave an IC50 of 710 nM.

`CC(=O)Nc1ccc(C(=O)Nc2ccc(-c3csc(-c4nc5ccccc5[nH]4)c3)cc2)cn1`: the IC50 came out at 590 nM.

Molecule `COc1ccc(-c2nc(-c3ccc([N+](=O)[O-])cc3)no2)cc1OC` returned an IC50 of 410 nM.

In turn, `Clc1ccc(Nc2nc(NCc3ccccc3)nc(N/N=C/c3ccccn3)n2)cc1` gave an IC50 of 780 nM.

For the molecule `COc1cccc(NC(=O)c2nc(N3CCN(c4ccncc4)CC3)ccc2Cl)c1`, the IC50 is 920 nM.

Molecule `COc1cc2nc(Nc3ccc(Oc4ccccc4)cc3)nc(Nc3ccc(Oc4ccccc4)cc3)c2cc1OC` gave an IC50 of 930 nM. The IC50 values of the last two molecules are within 1.5-fold of each other.

In turn, `O=C(/C=C/c1ccc(Cl)c(Cl)c1)NCCCCCN1CCC(CCNC(=O)Cc2ccc(Cl)cc2)CC1` yielded an IC50 of 1160 nM. This IC50 and that of the molecule before are within 1.5-fold of each other.

`CCN(CCCN1CCCCC1)c1cc(C)nc(Nc2ccc(C)c(C)c2)n1` gave an IC50 of 1020 nM. The IC50 values of the last two molecules are within 1.5-fold of each other.

For `Cc1ccc(F)cc1S(=O)(=O)Nc1cccc(CCN2CCC(N3CCCCC3)CC2)c1`, the half-inhibitory concentration (IC50) was 1120 nM. The IC50 values of the last two molecules are within 1.5-fold of each other.

Turning to `CC(C)CC1c2[nH]c3ccccc3c2CCN1C(=O)CCc1ccccc1` (stereo not given), the IC50 was 970 nM.

On to `COc1cccc(OC(C)(C)c2nc(N[C@@H](C)c3ccccc3)c3cn[nH]c3n2)c1`, for which the IC50 stood at 970 nM.

`COc1ccc2nccc([C@@H](O)CN3CCC(NC(=O)c4ccc(-c5ccc(C#N)cc5)cc4)CC3)c2c1`: the IC50 is 160 nM. Against the preceding molecule, the IC50 is about 6.1-fold lower.

With `CC(=O)c1cc(N2CCCC2)ccc1N`, the IC50 amounted to 20 nM.

For `COc1ccc2nccc([C@@H](O)CN3CCC(NCc4cc5cccc(O)c5c(=O)[nH]4)CC3)c2c1`, the IC50 came out at 390 nM.

Consider `CC(C)(C)c1ccc(OC(=O)c2ccc(NC(=O)N[C@@H](Cc3ccc(O)cc3)C(=O)NC3CCN(Cc4ccc(O)cc4)C3)cc2)cc1` (stereo not given in full), for which the IC50 was 810 nM.

`O=C(Nc1ccc(C(F)(F)F)cc1)NC1CCN(c2ccnc3cc(Cl)ccc23)C1` (stereo not given) returned an IC50 of 140 nM.

As to `Oc1c(C(Nc2ccccn2)c2ccc(Cl)cc2Cl)ccc2cccnc12` (stereo not given), the IC50 was 890 nM.

`CCCCn1c(Sc2ccc(C#N)c([N+](=O)[O-])c2)nnc1-c1ccc(OC)cc1` had a 50% inhibitory concentration (IC50) of 1030 nM.

Consider `Cc1ccc(C[C@H](C)NC[C@H](O)c2cccc(C(F)(F)F)c2)cc1`, for which the IC50 was found to be 980 nM. This IC50 and that of the molecule before are within 1.5-fold of each other.

Turning to `O=C(Nc1ccccc1OC(F)(F)F)NC1CCC(CN2CCC(c3c[nH]c4ccccc34)CC2)CC1` (stereo not given), the IC50 is 370 nM and 800 nM.

On to `COc1ccc(Nc2nccc(N3CCC(NC(=O)Nc4ccc5c(c4)OCO5)C3)n2)cc1` (stereo not given), for which the IC50 was 600 nM.

Molecule `Cc1cc(Nc2cccc(C#N)c2)nc(Nc2ccccc2C)n1` gave an IC50 of 860 nM. The IC50 values of the last two molecules are within 1.5-fold of each other.

In turn, `CC(C)CNCc1cccc(-c2cccc(CN(CCCN3CCN(C)CC3)C(=O)/C=C/c3ccccc3)c2)c1` gave a 50% inhibitory concentration (IC50) of 930 nM.

In turn, `NC(N)=Nc1nc(-c2cccc(NC(=O)NCc3ccc(OC(F)(F)F)cc3)c2)cs1` had an IC50 of 700 nM. The IC50 values of the last two molecules are within 1.5-fold of each other.

Turning to `Cc1ccc2c(NN=Cc3ccc(N(C)C)cc3)cc(C)nc2c1`, the IC50 was 880 nM.

On to `CCCCN(CCCC)CCNC(=O)c1cccc(NC(=O)N2CCc3cc(SC)c(C(F)(F)F)cc32)c1`, for which the IC50 was 810 nM.

`COc1cc2nc(NCc3ccc(S(N)(=O)=O)cc3)nc(Nc3ccc(Oc4ccccc4)cc3)c2cc1OC` gave an IC50 of 440 nM. Against the preceding molecule, the IC50 is about 1.8-fold lower.

Molecule `O=C(Cc1ccc(Nc2nccc(Nc3cccc4[nH]ncc34)n2)cc1)Nc1ccc(C(F)(F)F)cc1` returned an IC50 of 890 nM.

In turn, `CC(C)Nc1cc(C(=O)N[C@@H](Cc2ccccc2)[C@H](O)CNCc2cccc(C(F)(F)F)c2)c(F)c(N2CCCCS2(=O)=O)c1` showed a half-maximal inhibitory concentration (IC50) of 790 nM.

Regarding `O=C(NCCCN1CCC(N2CCCCC2)CC1)c1ccc(N2CCOc3ccccc32)s1`, the IC50 stood at 730 nM.

Molecule `Cc1cc2[nH]c(-c3ccc(C(=O)NCCCN4CCN(c5cccc(Cl)c5)CC4)s3)nc2cc1Cl` came in with an IC50 of 650 nM.

Turning to `CC(=O)c1ccc(O)c(CC(O)CO)c1` (stereo not given), the IC50 came to 720 nM.

In the case of `Cc1ccc(NC(=O)c2ccc(CN3CCCN(CC4CCCCC4)CC3)cc2)cc1C`, the half-inhibitory concentration (IC50) stood at 1020 nM.

As for `O=C(c1ccc(-c2cccc(-c3nc4ccc(C(F)(F)F)cc4[nH]3)c2)cc1)N1CCCCC1CN1CCC(O)C1` (stereo not given), the IC50 is 650 nM. This IC50 lies about 1.6-fold lower than the previous one.

Regarding `CCc1cn(C)c2c(N3CCCC3=O)cc(C(=O)N[C@@H](Cc3ccccc3)[C@H](O)CNCc3cccc(OC)c3)cc12`, the IC50 was found to be 780 nM.

For `CCc1ccc(C2=Nn3c(nnc3-c3cccs3)SC2)cc1`, the IC50 was found to be 1290 nM.

Consider `CN1CCc2cc(I)c(O)cc2C1Cc1ccccc1Cl` (stereo not given), for which the IC50 is 790 nM.
